The NIST ThermoML archive (doi:10.1021/acs.jced.7b00650)

Conditions: Liquid; for viscosity: Capillary tube (Ostwald / Ubbelohde) method; for mass density: Vibrating tube method

CCCCC [pentane]
Conditions | mass density [kg/m3] | viscosity [mPa·s]
293.21 K, 2000 kPa | 628.05 | 0.232
293.21 K, 3998 kPa | 630.31 | 0.2382
293.21 K, 6000 kPa | 632.63 | 0.2439
293.21 K, 8003 kPa | 634.89 | 0.2495
293.21 K, 13008 kPa | 640.02 | 0.2637
293.21 K, 30000 kPa | 655.38 | 0.31
293.22 K, 10008 kPa | 636.91 | 0.2551
293.22 K, 16007 kPa | 643 | 0.2719
293.22 K, 19009 kPa | 645.81 | 0.2806
293.22 K, 22010 kPa | 648.59 | 0.2885
293.22 K, 25002 kPa | 651.19 | 0.2967
293.22 K, 28002 kPa | 653.72 | 0.3046
313.1 K, 2005 kPa | 608.49 | 0.1968
313.1 K, 6001 kPa | 613.99 | 0.2075
313.1 K, 7999 kPa | 616.58 | 0.2126
313.1 K, 10005 kPa | 619.09 | 0.218
313.1 K, 13001 kPa | 622.65 | 0.2259
313.1 K, 16005 kPa | 626.03 | 0.2334
313.1 K, 19002 kPa | 629.28 | 0.2409
313.1 K, 22002 kPa | 632.38 | 0.2485
313.1 K, 25004 kPa | 635.4 | 0.2558
313.1 K, 28002 kPa | 638.2 | 0.2628
313.1 K, 30005 kPa | 640.09 | 0.2676
313.11 K, 4002 kPa | 611.31 | 0.2023
333.01 K, 2009 kPa | 587.87 | 0.1679
333.01 K, 3997 kPa | 591.4 | 0.1737
333.01 K, 6002 kPa | 594.59 | 0.1787
333.01 K, 8008 kPa | 597.69 | 0.1837
333.01 K, 10001 kPa | 600.61 | 0.1888
333.01 K, 12998 kPa | 604.82 | 0.1958
333.01 K, 15996 kPa | 608.78 | 0.2029
333.01 K, 19000 kPa | 612.5 | 0.21
333.01 K, 21997 kPa | 616.1 | 0.217
333.01 K, 25000 kPa | 619.39 | 0.2239
333.01 K, 27997 kPa | 622.68 | 0.2306
333.01 K, 30006 kPa | 624.71 | 0.2348
353.12 K, 2006 kPa | 565.77 | 0.1452
353.12 K, 3997 kPa | 570.01 | 0.1504
353.12 K, 6002 kPa | 574.02 | 0.1557
353.12 K, 8003 kPa | 577.79 | 0.1606
353.12 K, 10008 kPa | 581.28 | 0.1654
353.12 K, 13000 kPa | 586.31 | 0.1724
353.12 K, 16001 kPa | 590.9 | 0.1792
353.12 K, 18997 kPa | 595.21 | 0.1857
353.12 K, 25002 kPa | 603.1 | 0.1987
353.12 K, 28005 kPa | 606.77 | 0.2047
353.12 K, 30001 kPa | 609.1 | 0.2087
353.13 K, 22000 kPa | 599.29 | 0.1922
